Read-outs that look alike come from different tables or passages of the source.
Key:
MV411 cells xenograft = experiment: AML xenograft model, combination with Ara-C; type: in vivo, CB17 SCID mice; conditions: AML mice xenograft
Protocol: CB17 SCID mice were inoculated with MV411 cells at the density of 5×10^6 suspended in PBS and matrigel (1:1). The mice were randomized based on tumor volume into 6 different groups after the tumor reached ˜200 to 500 mm^3. The mice were treated either with vehicle, NU031, NU975 alone or in combination with cytarabine (Ara-C). […] (See FIG. 17).

[1] = Potency code of Table 2 (assay not stated)
[2] = In vitro metabolism with mouse liver microsomes; type: in vitro ADME; conditions: % remaining of compound after 60 min treatment with mouse liver microsomes
Protocol: (§1) In vitro metabolism of NUCC-176242 and NUCC-176248 were tested using mouse liver microsomes and a mouse S9 fraction. (See FIG. 9).

[3] = Plasma protein binding (mouse); type: in vitro ADME
[4] = tested on: MYC transcriptional activity (c-Myc E-box-luciferase reporter, MycCap cells); experiment: MYC E-box luciferase reporter assay; type: cell-based; conditions: 4 hours of treatment
Protocol: To test the compounds, we evaluated the in silico hits in a MYC E-Box luciferase reporter assay to measure the effects of these compounds (referred to as Min-1 to Min-32) on MYC transcriptional activity. […] (See FIG. 2).
MycCap cells stably expressing luciferase with CMV promoter (MycCap-luc) or c-Myc E-box-luciferase reporter (MycCap Ebox-luc) were plated at 10000 cells per well in 96 well white-wall plate. Serial dilutions of 361 were treated next day. At 4 hours of treatment, luminescence signal was determined immediately after adding 150 μg/ml of Luciferin to the well. (See FIG. 12).

[5] = tested on: PC3 prostate cancer cell line; experiment: Proliferation assay of PC3 cells (MTS); type: cell-based; conditions: Myc dependent cell line
Protocol: (§2) PC3 prostate cancer cell line with high Myc level and PC12 pheochromocytoma tumor cell line with non functional Max protein, which is not dependent on Myc-Max complex, were phased from ATCC. Cells were plated in 96 well plate at 1000 cells per well, and Myc inhibitor 361 at various concentrations was added to the cells next day. After 3 days of treatment, fresh medium with 361 were added again, and cell viability was measured by MTS assay at day 5 after the treatment. (See FIG. 11).

MycCap tumor [6] = experiment: MycCap FVB allograft model; type: in vivo, FVB mice; conditions: mouse prostate cancer allograft, intra-peritoneally
Protocol: FVB mice were inoculated with 1×10^6 of MycCap cells in 100 ul of matrigel subcutaneously on both flanks of the mice. When tumor size reached average size of 150 mm^3, mice were randomized based on tumor volume to 2 groups. Mice were administered with 50 mg/kg of 361 or vehicle(Veh) twice daily intra-peritoneally for two days. The treatment was suspended for 10 day, and initiated the treatment with a lower dose […] daily for another 9 days. Tumor size was measured twice a week during the experiment. (See FIG. 15).

MycCap tumor [7] = experiment: MycCap FVB allograft model, combination with anti-PD-1 immunotherapy; type: in vivo, FVB mice; conditions: combination with anti-PD-1 antibody
Protocol: MycCap FVB allograft model was treated with 361 (50 mg/kg) for two days, following by two days of anti-PD-1 antibody (100 ug/day), and kept this 4-day treatment cycle for 4 cycles. (See FIG. 16).

MycCap cells = experiment: Cell viability of MycCap cells; type: cell-based
MYC/Max binding to DNA = MYC/Max binding to DNA (Homo sapiens, UniProt P01106); experiment: Electrophoretic mobility shift assay (EMSA) of MYC/Max binding to DNA
Protocol: We also tested our best hit compound Min9 (NUCC-0176234) and newly synthesized analogs for effects of these compounds on MYC/Max binding to DNA in electrophoretic mobility shift assays (EMSAs). (See FIG. 5a and FIG. 5b). We expected the active compounds to impair MYC/Max binding to DNA. Several structural analogs of Min9 were tested over multiple doses for inhibiting MYC-DNA binding and we observed a dose-dependent inhibition. (See FIG. 5c).

[8] = tested on: cMYC wild-type (WT) and cMYC KO line; experiment: Cell viability assay, cMYC wild-type line versus cMYC KO line; type: cell-based
Protocol: Min9 (NUCC-0176234) was also tested in a cell viability assay against a cMYC wild-type (WT) and a cMYC KO line.

DNA damage (rH2AX) = experiment: rH2AX staining assay for DNA damage; type: cell-based
Protocol: Min9 (NUCC-0176234) was also tested for its ability to cause DNA damage in an rH2AX staining assay. We would not expect cMYC-targeting agents to produce significant DNA damage. Compounds that act directly against DNA such as doxorubicin do however. […] (See FIG. 6).

[9] = Pharmacokinetics in mice after IV dosing; type: in vivo; conditions: 5 mg/kg intravenously
Protocol: The pharmacokinetics of NUCC-176242 and NUCC-176248 were studied in mice by administering a dose of 5 mg/kg intravenously and measuring the plasma concentration versus time. (See FIG. 10).
The pharmacokinetics of NUCC-176242 and NUCC-176248 were studied in mice by administering a dose of 5 mg/kg intravenously and measuring the plasma concentration versus time.

[10] = tested on: MYC WT and MYC KO rat fibroblasts; experiment: Growth inhibition of wild type and MYC knockout rat fibroblasts; type: cell-based
Text: We tested the top 13 active compounds in the first screen assay. […] More than half of the tested compounds show better growth inhibitory effect on MYC WT compared to MYC KO cells.

PC12 cells = experiment: Cell viability / proliferation of PC12 cells (MTS); type: cell-based
Protocol: as §2

[11] = In vitro metabolism with mouse S9 fraction; type: in vitro ADME
Protocol: as §1
In vitro metabolism of NUCC-176242 and NUCC-176248 were tested using mouse liver microsomes and a mouse S9 fraction.

Sequence of MYC/Max binding to DNA (P01106 whole entry): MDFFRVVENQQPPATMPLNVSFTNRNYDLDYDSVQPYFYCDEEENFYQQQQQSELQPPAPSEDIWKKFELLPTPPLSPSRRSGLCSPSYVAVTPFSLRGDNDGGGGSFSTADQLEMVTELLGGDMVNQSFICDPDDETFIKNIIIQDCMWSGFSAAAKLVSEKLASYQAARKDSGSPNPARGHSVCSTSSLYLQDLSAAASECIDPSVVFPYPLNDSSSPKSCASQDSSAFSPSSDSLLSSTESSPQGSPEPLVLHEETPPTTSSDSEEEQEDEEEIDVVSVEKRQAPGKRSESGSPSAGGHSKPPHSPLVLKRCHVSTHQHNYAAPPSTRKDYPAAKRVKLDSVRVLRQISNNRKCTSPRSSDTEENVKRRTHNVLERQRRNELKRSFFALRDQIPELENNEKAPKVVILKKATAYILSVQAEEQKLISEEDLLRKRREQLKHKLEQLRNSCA

| Structure (SMILES) | MLM % at 60 min [2] | Potency code [1] | further results |
| --- | --- | --- | --- |
| CCCCOc1ccc(-c2cc(C(F)(F)F)n[nH]2)c(O)c1-c1cc(C(F)(F)F)cc(C(F)(F)F)c1 [NU031] | – | – | anti-tumor effect in combination with Ara-C (MV411 cells xenograft): significant difference compared to control group |
| Cn1nc(C(F)(F)F)cc1-c1ccc(OCc2ccc(Cl)cc2)c(-c2cc(C(F)(F)F)cc(C(F)(F)F)c2)c1O [compound 361] | – | – | c-Myc transcription activity [4]: inhibits c-Myc transcription activity as an early event before affecting cell viability; proliferation of PC3 [5]: specifically inhibits proliferation; tumor volume (MycCap tumor [6]): reduces tumor volume; tumor progression (MycCap tumor [7]): significantly blocks tumor progression |
| Cn1nc(C(F)(F)F)cc1-c1ccc(OCc2ccc(Cl)cc2)c(-c2ccc(Cl)c(C(F)(F)F)c2)c1O [compound 975] | – | – | anti-tumor effect in combination with Ara-C (MV411 cells xenograft): significant synergic anti-tumor effect |
| O=C1CCC(N2C(=O)c3cccc(OCc4cn(CCOCCOCCOCCOCC(=O)Nc5ccc(COc6ccc(-c7cc(C(F)(F)F)n[nH]7)c(O)c6-c6cc(C(F)(F)F)cc(C(F)(F)F)c6)cc5)nn4)c3C2=O)C(=O)N1 (stereo not drawn) [NUCC-0201203] | – | ++ (30-40 ++) | IC50 (MycCap cells): 32.4 µM |
| CCc1ccc(Oc2c(-c3ccc(OCc4cccc(Cl)c4)cc3O)n[nH]c2C(F)(F)F)cc1 [NUCC-0196295] | – | +++ (10-30 +++) | IC50 (MYC/Max binding to DNA): 66.8 µM |
| CCc1ccc(Oc2c[nH]nc2-c2ccc(OCc3cnn(-c4ccccc4)c3)cc2O)cc1 [NUCC-0176234] | – | + (>40 +) | inhibition of MYC/Max (c-MYC) binding to DNA (MYC/Max binding to DNA; in words): prevent c-MYC/DNA binding; cell viability, WT line versus KO cells [8]: reduces cell viability much more in the WT line than the KO cells; DNA damage (DNA damage (rH2AX)): essentially no DNA damage |
| CCc1ccc(Oc2c(-c3ccc(OCc4ccc(Cl)cc4)cc3O)nn(C)c2C(F)(F)F)cc1 [NUCC-0176248] | – | + (>40 +) | in vivo metabolism (plasma concentration versus time) [9]: correlated well with the observed in vitro metabolism; selectivity of growth inhibition, MYC WT versus MYC KO [10]: high specificity |
| Cn1nc(C(F)(F)F)cc1-c1ccc(OCc2ccc(Cl)cc2)c(-c2ccc(Cl)c(C(F)(F)F)c2)c1O [NU975] | – | – | anti-tumor effect in combination with Ara-C (MV411 cells xenograft): significant difference compared to control group |
| O=C1CCC(N2C(=O)c3cccc(OCc4cn(CCOCCOCCOCC(=O)Nc5ccc(COc6ccc(-c7cc(C(F)(F)F)n[nH]7)c(O)c6-c6cc(C(F)(F)F)cc(C(F)(F)F)c6)cc5)nn4)c3C2=O)C(=O)N1 (stereo not drawn) [NUCC-0201202] | – | +++ (10-30 +++) | IC50 (MycCap cells): 4 µM; IC50 (PC12 cells): 23.1 µM |
| CC(C)CCOc1ccc(-c2cc(C(F)(F)F)n[nH]2)c(O)c1-c1cc(C(F)(F)F)cc(C(F)(F)F)c1 [NUCC-0201198] | – | +++ (10-30 +++) | IC50 (MycCap cells; Mus musculus, Myc-CaP): 2.6 µM; IC50 (PC12 cells; Rattus norvegicus, PC-12): 8.2 µM |
| CCc1ccc(Oc2c(-c3ccc(OCc4ccc(Cl)cc4)cc3O)n[nH]c2C(F)(F)F)cc1 [NUCC-0176242] | – | ++ (30-40 ++) | metabolism by mouse S9 fraction [11]: significantly metabolism by the mouse S9 fraction versus NUCC-176248; in vivo metabolism (plasma concentration versus time) [9]: correlated well with the observed in vitro metabolism |
| CCc1ccc(Oc2c(-c3ccc(OCc4ccncc4)cc3O)n[nH]c2C(F)(F)F)cc1 [NUCC-0176250] | – | + (>40 +) | selectivity of growth inhibition, MYC WT versus MYC KO [10]: great selectivity |

The next lines start with results.

| MLM % at 60 min [2] | Structure (SMILES) | Potency code [1] | further results |
| --- | --- | --- | --- |
| 21.8% | Cn1nc(C(F)(F)F)cc1-c1ccc(OCc2ccc(Cl)cc2)cc1C=O [NUCC-0200976] | + (>40 +) | fraction unbound [3]: < 0.001 |
| 30.5% | Oc1c(-c2cc(C(F)(F)F)n[nH]2)ccc(OCCN2CCCC2)c1-c1cc(C(F)(F)F)cc(C(F)(F)F)c1 [NUCC-0201032] | + (>40 +) | fraction unbound [3]: < 0.001 |
| 10.3% | CCCCOc1ccc(-c2cc(C(F)(F)F)n(C)n2)c(O)c1-c1cncc(C(F)(F)F)c1 [NUCC-0201209] | + (>40 +) | – |
| 72.9% | Cn1nc(C(F)(F)F)cc1-c1ccc(OCc2ccc(Cl)cc2)c(-c2cc(C(F)(F)F)cc(C(F)(F)F)c2)c1O [NUCC-0196361] | ++++ (<10 ++++) | fraction unbound [3]: < 0.001 |
| 80.3% | Cn1nc(C(F)(F)F)cc1-c1ccc(OCc2ccc(Cl)cc2)c(-c2cccc(C#N)c2)c1O [NUCC-0198399] | ++++ (<10 ++++) | – |
| 46.4% | CCc1c(OCc2ccc(Cl)cc2)ccc(-c2cc(C(F)(F)F)n[nH]2)c1O [NUCC-0200739] | + (>40 +) | – |
| 87.4% | Oc1cc(OCc2ccc(Cl)cc2)ccc1-c1n[nH]c(C(F)(F)F)c1Oc1ccccc1Cl [NUCC-0196342] | ++++ (<10 ++++) | – |
| 75.8% | Oc1c(-c2cc(C(F)(F)F)[nH]n2)ccc(Oc2ccc(Cl)cc2)c1-c1cc(C(F)(F)F)cc(C(F)(F)F)c1 [NUCC-0201223] | ++++ (<10 ++++) | – |
| 60.3% | CCOC(=O)c1cc(-c2ccc(OCc3ccc(Cl)cc3)c(-c3cc(C(F)(F)F)cc(C(F)(F)F)c3)c2O)n[nH]1 [NUCC-0200972] | + (>40 +) | fraction unbound [3]: < 0.001 |

Source: patent US20200392116A1, “SUBSTITUTED HETEROCYCLES AS c-MYC TARGETING AGENTS” (NORTHWESTERN UNIVERSITY, priority 2019, published 2020)
